Here are results for 32 compounds from PMC8315004, “Discovery of Small-Molecule Inhibitors of SARS-CoV-2 Proteins Using a Computational and Experimental Pipeline” (Frontiers in Molecular Biosciences, 2021).

Several values for one entry are separate records, joined by “and”; a condition that tells them apart may be missing. Identical values can stand only once. Like-named read-outs stand apart in the source and are kept apart here. A value given as a limit tells only on which side of the number the result lay.

The subject of series [1] is VSV-SARS2. The series is described as follows: microbe, parasite or virus in culture. The series is classed as cell-based. To be noted: for inhibition at 10 µM: read-out: inhibition of VSV-SARS2 infection (efficacy); for IC50: read-out: IC50 against VSV-SARS2.
In series [2] the target is ACE2-RBD binding (SARS-CoV-2 RBD / human ACE2-Fc) (Severe acute respiratory syndrome coronavirus 2, UniProt P0DTC2). Kind of series: biochemical. To be noted: for RMAX of ACE2-RBD binding: RBD pre-treated with 50 μM compound, DMSO only 0.3044; for ACE2-RBD binding versus inhibitor concentration (in words): RBD pre-treated with increasing concentrations; for inhibition at 50 µM: pre-treatment with 50 μM compound, from Rmax with vs without compound.

Series [3] concerns SARS-CoV-2 expressing the mNeon reporter gene. The series is described as follows: microbe, parasite or virus in culture. It counts as cell-based. To be noted: read-out: IC50 against SARS-CoV-2.
The nature of series [4]: in vitro. To be noted: African green monkey.
For series [5], the system named is Mpro. To be noted: cited from earlier work.
Series [6] addresses T1, SARS-CoV-2 M^pro (Severe acute respiratory syndrome coronavirus 2, UniProt P0DTD1). Kind of series: biochemical. Also on record: inhibition: dose or concentration left out as unconfirmed. To be noted: for inhibition at 100 µM / inhibition: read-out: Normalized Percent FRET inhibition; for inhibition / Normalized Percent FRET inhibition: initial screen, Table S4; for IC50: normalized FRET data, technical duplicates, end-point about 4 h, read-out: IC50 against Mpro, FRET values; for inhibition of the activity of Mpro in secondary screen: re-screen at 100 μM; for Normalized Percent FRET inhibition: 100 μM of drug.

The target of series [7] is T1, SARS-CoV-2 M^pro. The series is described as follows: Mpro substrate cleavage by gel electrophoresis (SDS-PAGE) and densitometry. To be noted: normalized gel densitometry data (red values of Figure 2D); read-out: IC50 against Mpro, gel electrophoresis and densitometry. It counts as biochemical.
Series [8] concerns Mpro. To be noted: slightly shorter fluorogenic substrate; ref Li et al., 2020; read-out: IC50 as Mpro inhibitor (literature); cited from earlier work.
Where [9] appears, read: Vesicular stomatitis virus, Vero.
[10] abbreviates: Severe acute respiratory syndrome coronavirus 2, Vero, 18 h.

`Cc1ccc(NC(=O)c2ccc(CN3CCN(C)CC3)cc2)cc1Nc1nccc(-c2cccnc2)n1` [Imatinib]: in series [1] (setting [9]), the inhibition at 10 µM is not below 50%.
Consider `CS(=O)(=O)CCNCc1ccc(-c2ccc3ncnc(Nc4ccc(OCc5cccc(F)c5)c(Cl)c4)c3c2)o1` [Lapatinib], for which, in series [2], the “RMAX of ACE2-RBD binding” value stood at 0.2344, the “ACE2-RBD binding versus inhibitor concentration (in words)” value was “concentration-dependent decrease” and the inhibition at 50 µM was determined as 23%. In series [3] (setting [10]), the IC50 worked out at 31.1 µM. Besides, in series [1] (setting [9]), the IC50 was less than 10 µM and the inhibition at 10 µM is not below 50%. The IC50 in series [1] was 7.1 µM. Besides, the CC50 in series [4] was 69.6 µM.
For the compound `O=c1c2ccccc2[se]n1-c1ccccc1` [Ebselen], the “Mpro inhibitor potency (literature, in words)” value in series [5] was “low micromolar”. For the same compound, the inhibition at 100 µM in series [6] is 117%.
As for `C#Cc1cccc(Nc2ncnc3cc4c(cc23)OCCOCCOCCO4)c1` [Icotinib], in series [2], the “RMAX of ACE2-RBD binding” value came out at 0.2406, the “ACE2-RBD binding versus inhibitor concentration (in words)” value is reported as “concentration-dependent decrease” and the inhibition at 50 µM worked out at 21%. Moreover, the inhibition in series [6] was -0.628%.
Consider `C#C[C@]1(O)CC[C@H]2[C@@H]3CCC4=CC(=O)CCC4=C3C=C[C@@]21CC` [Gestrinone], for which, in series [2], the “RMAX of ACE2-RBD binding” value is reported as 0.2366, the “ACE2-RBD binding versus inhibitor concentration (in words)” value is recorded as “concentration-dependent decrease” and the inhibition at 50 µM was 22%.
With `C[C@@H]1O[C@@H](OC[C@H]2O[C@@H](Oc3c(-c4ccc(O)c(O)c4)oc4cc(O)cc(O)c4c3=O)[C@H](O)[C@@H](O)[C@@H]2O)[C@H](O)[C@H](O)[C@H]1O` [Rutin], the inhibition in series [6] was -0.554%.
The same measure, in the same setting: the same measure for `C=CC[C@@H]1/C=C(\C)C[C@H](C)C[C@H](OC)[C@H]2O[C@@](O)(C(=O)C(=O)N3CCCC[C@H]3C(=O)O[C@H](/C(C)=C/[C@@H]3CC[C@@H](O)[C@H](OC)C3)[C@H](C)[C@@H](O)CC1=O)[C@H](C)C[C@@H]2OC` [Tacrolimus]: -0.417%.
Regarding `CC1CNc2c(cccc2S(=O)(=O)N[C@@H](CCCNC(=N)N)C(=O)N2CC[C@@H](C)C[C@@H]2C(=O)O)C1` (stereo partly shown) [Argatroban], the inhibition in series [6] was 13.5%.
As to `CN(C)[C@@H]1C(O)=C(C(N)=O)C(=O)[C@@]2(O)C(O)=C3C(=O)c4c(O)cccc4[C@@](C)(O)[C@H]3C[C@@H]12` [Tetracycline], the IC50 in series [7] came out at 38.2 µM. In series [6], the inhibition is 40.3%, the IC50 was found to be 20.8 µM and the “inhibition of the activity of Mpro in secondary screen” value (from here on “inhibition of the activity of Mpro”) is “completely inhibit”.
In the case of `Cc1cc2nc3c(=O)[nH]c(=O)nc-3n(C[C@H](O)[C@H](O)[C@H](O)COP(=O)(O)OP(=O)(O)OC[C@H]3O[C@@H](n4cnc5c(N)ncnc54)[C@H](O)[C@@H]3O)c2cc1C` [Flavin Adenine Dinucleotide Disodium], in series [7], the IC50 is more than 100 µM. Besides, in series [6], the inhibition was 149%, the IC50 worked out at 42.5 µM and the “inhibition of the activity of Mpro” value is on record as “completely inhibit”.
Consider `C[C@]12C=CC(=O)N[C@@H]1CC[C@@H]1[C@@H]2CC[C@]2(C)[C@@H](C(=O)Nc3cc(C(F)(F)F)ccc3C(F)(F)F)CC[C@@H]12` [Dutasteride], for which the inhibition in series [6] was -2.38%.
Same read-out and setting: then `CC(C)OC(=O)[C@H](C)N[P@](=O)(OC[C@H]1O[C@@H](n2ccc(=O)[nH]c2=O)[C@](C)(F)[C@@H]1O)Oc1ccccc1` [Sofosbuvir], with -0.4%.
Regarding `Nc1nc(=O)c2c([nH]1)NC[C@H](CNc1ccc(C(=O)N[C@@H](CCC(=O)[O-])C(=O)[O-])cc1)N2C=O.[Ca+2]` [Calcium Levofolinate], the “Normalized Percent FRET inhibition” value in series [6] was determined as 13%.
For `CC1(C)O[C@@H]2C[C@H]3[C@@H]4C[C@H](F)C5=CC(=O)C=C[C@]5(C)[C@@]4(F)[C@@H](O)C[C@]3(C)[C@]2(C(=O)CO)O1` [Fluocinolone acetonide], the inhibition in series [6] was 0.0249%.
In the case of `CCOc1nc2cccc(C(=O)O)c2n1Cc1ccc(-c2ccccc2-c2nnn[nH]2)cc1` [Candesartan], the “effect in the FRET-based activity assay (in words)” value in series [6] is listed as “no effect”.
Consider `C[C@H]1CN(C[C@H](Cc2ccccc2)C(=O)NCC(=O)O)CC[C@@]1(C)c1cccc(O)c1` [Alvimopan], for which the inhibition in series [6] was -3.26%.
Regarding `CN(C)c1cc(NC(=O)CNC(C)(C)C)c(O)c2c1C[C@H]1C[C@H]3[C@H](N(C)C)C(O)=C(C(N)=O)C(=O)[C@@]3(O)C(O)=C1C2=O` [Tigecycline], the IC50 in series [7] stood at 29 µM. Further, in series [6], the inhibition turned out to be 56.5%; the IC50 was 21.5 µM and 20.5 µM; the “inhibition of the activity of Mpro” value is “completely inhibit”.
With `CC(=O)O[C@H]1C[C@@H]2CC[C@@H]3[C@H](CC[C@@]4(C)[C@H]3C[C@H]([N+]3(C)CCCCC3)[C@@H]4OC(C)=O)[C@@]2(C)C[C@@H]1N1CCCCC1` [Vecuronium bromide], the inhibition in series [6] amounted to 4.13%.
On to `COc1ccc(-c2ccc3cc(C(=O)O)ccc3c2)cc1C12CC3CC(CC(C3)C1)C2` [Adapalene], for which, in series [2], the “RMAX of ACE2-RBD binding” value amounted to 0.2322, the “ACE2-RBD binding versus inhibitor concentration (in words)” value is “concentration-dependent decrease” and the inhibition at 50 µM came to 23.8%. In series [6], the inhibition is 0.236%. For the same compound, the IC50 in series [3] (setting [10]) was approximately 10 µM. The IC50 in series [3] was 9.6 µM. This compound also displayed a CC50 in series [4] of 60.7 µM.
Regarding `CCN1CCN(C(=O)N[C@@H](C(=O)N[C@@H]2C(=O)N3C(C(=O)O)=C(CSc4nnnn4C)CS[C@H]23)c2ccc(O)cc2)C(=O)C1=O` [Cefoperazone sodium], the “Normalized Percent FRET inhibition” value in series [6] (100 µM) is 14.81%.
For the compound `CC(=O)O[C@H]1C[C@@H]2CC[C@@H]3[C@H](CC[C@@]4(C)[C@H]3C[C@H]([N+]3(C)CCCCC3)[C@@H]4OC(C)=O)[C@@]2(C)C[C@@H]1[N+]1(C)CCCCC1` [Pancuronium bromide], the inhibition at 100 µM in series [6] was 10%.
With `C[C@H]1O[C@H](O[C@H]2[C@H](O)[C@@H](O)[C@@H](O[C@H]3[C@H](O)[C@@H](O)C(O)O[C@@H]3CO)O[C@@H]2CO)[C@H](O)[C@@H](O)[C@@H]1N[C@H]1C=C(CO)[C@@H](O)[C@H](O)[C@H]1O` (stereo partly shown) [Acarbose], the inhibition in series [6] was -3.44%.
On the same count and under the same terms, the same measure for `Cc1cnc(C(=O)N[C@H]2CCCCC/C=C\[C@@H]3C[C@@]3(C(=O)NS(=O)(=O)C3CC3)NC(=O)[C@@H]3C[C@@H](Oc4nc5ccccc5c5ccccc45)CN3C2=O)cn1` [Paritaprevir]: 0.758%.
With `CS(=O)(=O)CCNCc1ccc(-c2ccc3ncnc(Nc4ccc(OCc5cccc(F)c5)c(Cl)c4)c3c2)o1` [Lapatinib Ditosylate], the inhibition in series [6] is -1.57%.
With `CO/N=C(\C(=O)N[C@@H]1C(=O)N2C(C(=O)O)=C(CSc3nnnn3C)CS[C@H]12)c1csc(N)n1.CO/N=C(\C(=O)N[C@@H]1C(=O)N2C(C(=O)O)=C(CSc3nnnn3C)CS[C@H]12)c1csc(N)n1.Cl` [Cefmenoxime hydrochloride], the “Normalized Percent FRET inhibition” value in series [6] was -1.304%.
Consider `COc1ccc2nc3cc(Cl)ccc3c(Nc3cc(CN4CCCC4)c(O)c(CN4CCCC4)c3)c2n1` [Pyronaridine], for which the inhibition in series [6] is -8.33%.
For `CN(c1nccc(=O)[nH]1)C1CCN(c2nc3ccccc3n2Cc2ccc(F)cc2)CC1` [Mizolastine], the inhibition in series [6] was -0.317%.
As for `CCOc1nc2cccc(C(=O)OC(C)OC(=O)OC3CCCCC3)c2n1Cc1ccc(-c2ccccc2-c2nnn[nH]2)cc1` (stereo not shown) [Candesartan Cilexetil], the IC50 in series [8] was 2.8 µM; in series [7] it was 77.1 µM; in series [6], ~67 µM and 67.4 µM; in series [3] (setting [10]) it was approximately 10 µM; in series [3] it was 10.4 µM. In series [6], the inhibition amounted to 153%. Moreover, in series [6], the “inhibition of the activity of Mpro” value is given as “completely inhibit”. In series [4], the CC50 is more than 100 µM.
`NS(=O)(=O)c1cc2c(cc1C(F)(F)F)NC(Cc1ccccc1)NS2(=O)=O` (stereo not shown) [Bendroflumethiazide]: in series [6], the inhibition is 11.6%.
As for `CC1(C)S[C@@H]2[C@H](NC(=O)[C@H](NC(=O)N3CCNC3=O)c3ccccc3)C(=O)N2[C@H]1C(=O)O` [Azlocillin sodium], the inhibition in series [6] was -0.915%.
In the case of `CC(C)=CCC[C@](C)(O[C@@H]1O[C@H](CO)[C@@H](O)[C@H](O)[C@H]1O)[C@H]1CC[C@]2(C)[C@@H]1[C@H](O)C[C@@H]1[C@@]3(C)CC[C@H](O)C(C)(C)[C@@H]3[C@@H](O[C@@H]3O[C@H](CO)[C@@H](O)[C@H](O)[C@H]3O)C[C@]12C` [Ginsenoside Rg1], the inhibition in series [6] was 4.19%.
For the compound `CC1=C(C(=O)OC(C)C)C(c2cccc([N+](=O)[O-])c2)C(C(=O)OC2CN(C(c3ccccc3)c3ccccc3)C2)=C(N)N1` (stereo not shown) [Azelnidipine], the inhibition in series [6] came to 8.17%.
